target: recombinant full length HPK-1 enzyme (Homo sapiens (Human), UniProt Q92918); test: HPK-1 biochemical enzyme assay (ADP-Glo kinase inhibition); conditions: recombinant full length HPK-1 6.8 nM, 10 μM ATP, 12.5 μM MBP, 30 mins at 25° C.
Procedure, shortened: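 ADP-Glo readout of ADP formed after a 30 min, 25° C. reaction of 6.8 nM full-length HPK-1 with swine myelin basic protein (12.5 μM) and ATP (10 μM) in Tris pH 7.4 buffer with MgCl2, DTT and BSA. Ten compound concentrations tested; percent inhibition set against vehicle (0%) and no-enzyme (100%) controls gave IC50.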

Sequence of recombinant full length HPK-1 enzyme (Q92918 whole entry, species assumed): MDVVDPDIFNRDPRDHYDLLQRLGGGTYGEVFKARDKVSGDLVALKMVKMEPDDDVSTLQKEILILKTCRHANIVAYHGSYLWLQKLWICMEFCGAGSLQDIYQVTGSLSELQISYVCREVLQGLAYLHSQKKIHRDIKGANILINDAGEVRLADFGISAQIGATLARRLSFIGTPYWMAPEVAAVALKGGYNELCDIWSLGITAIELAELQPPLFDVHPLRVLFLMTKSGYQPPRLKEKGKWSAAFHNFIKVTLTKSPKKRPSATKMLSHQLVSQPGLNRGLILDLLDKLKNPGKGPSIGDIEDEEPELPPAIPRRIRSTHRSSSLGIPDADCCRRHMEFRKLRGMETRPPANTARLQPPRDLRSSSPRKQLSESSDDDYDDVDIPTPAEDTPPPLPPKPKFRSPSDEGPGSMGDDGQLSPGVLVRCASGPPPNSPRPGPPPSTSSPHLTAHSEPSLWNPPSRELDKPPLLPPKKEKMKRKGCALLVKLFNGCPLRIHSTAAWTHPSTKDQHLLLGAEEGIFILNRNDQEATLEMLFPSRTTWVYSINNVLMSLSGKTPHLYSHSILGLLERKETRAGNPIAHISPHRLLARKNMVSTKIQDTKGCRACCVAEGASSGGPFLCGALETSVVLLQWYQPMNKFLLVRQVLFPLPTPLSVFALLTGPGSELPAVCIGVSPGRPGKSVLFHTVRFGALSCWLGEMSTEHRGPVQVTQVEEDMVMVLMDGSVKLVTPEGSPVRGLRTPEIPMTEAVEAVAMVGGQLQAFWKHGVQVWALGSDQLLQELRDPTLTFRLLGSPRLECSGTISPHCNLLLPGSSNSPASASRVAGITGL

Structure (SMILES)	IC50 [nM]
Cc1cc(NC(=O)c2c(Nc3cnc4c(c3C)NCCO4)cc[nH]c2=O)ccc1N1CCN(C2CC2)CC1 [Example 400, N-(4-(4-cyclopropylpiperazin-1-yl)-3-methylphenyl)-4-((8-methyl-2,3-dihydro-1H-pyrido[2,3-b][1,4]oxazin-7-yl)amino)-2-oxo-1,2-dihydropyridine-3-carboxamide]	10 to 100
Cc1c(Nc2cc[nH]c(=O)c2C(=O)Nc2ccc(N3CCC(N)C3)cc2)cnc2c1NCCO2 (stereo not shown) [Example 395, N-(4-(3-aminopyrrolidin-1-yl)phenyl)-4-((8-methyl-2,3-dihydro-1H-pyrido[2,3-b][1,4]oxazin-7-yl)amino)-2-oxo-1,2-dihydropyridine-3-carboxamide]	10 to 100
Cc1c(Nc2cc[nH]c(=O)c2C(=O)Nc2ccc(N3CCC(F)(F)CC3)cc2)cnc2c1NCCO2 [Example 161, N-(4-(4,4-difluoropiperidin-1-yl)phenyl)-4-((8-methyl-2,3-dihydro-1H-pyrido[2,3-b][1,4]oxazin-7-yl)amino)-2-oxo-1,2-dihydropyridine-3-carboxamide]	10 to 100
Cc1c(Nc2cc[nH]c(=O)c2C(=O)Nc2ccc(N3CCN4C(=O)CCCC4C3)cc2)cnc2c1NCCO2 (stereo not shown) [Example 374, 4-((8-methyl-2,3-dihydro-1H-pyrido[2,3-b][1,4]oxazin-7-yl)amino)-2-oxo-N-(4-(6-oxooctahydro-2H-pyrido[1,2-a]pyrazin-2-yl)phenyl)-1,2-dihydropyridine-3-carboxamide]	10 to 100
Cc1c(Nc2cc[nH]c(=O)c2C(=O)Nc2ccc(CN3CCN(C)CC3)c(C(F)(F)F)c2)cnc2c1NCCO2 [Example 213, 4-((8-methyl-2,3-dihydro-1H-pyrido[2,3-b][1,4]oxazin-7-yl)amino)-N-(4-((4-methylpiperazin-1-yl)methyl)-3-(trifluoromethyl)phenyl)-2-oxo-1,2-dihydropyridine-3-carboxamide]	10 to 100
Cc1c(Nc2cc[nH]c(=O)c2C(=O)Nc2ccc(N3CCN(C)C(=O)C3)cc2)cnc2c1NCCO2 [Example 272, 4-((8-methyl-2,3-dihydro-1H-pyrido[2,3-b][1,4]oxazin-7-yl)amino)-N-(4-(4-methyl-3-oxopiperazin-1-yl)phenyl)-2-oxo-1,2-dihydropyridine-3-carboxamide]	10 to 100
Cc1ccc(N2CCN(c3ccc(NC(=O)c4c(Nc5cnc6c(c5C)NCCO6)cc[nH]c4=O)cc3)CC2)cn1 [Example 363, 4-((8-Methyl-2,3-dihydro-1H-pyrido[2,3-b][1,4]oxazin-7-yl)amino)-N-(4-(4-(6-methylpyridin-3-yl)piperazin-1-yl)phenyl)-2-oxo-1,2-dihydropyridine-3-carboxamide]	10 to 100
Cc1c(Nc2cc[nH]c(=O)c2C(=O)Nc2ccc3c(c2)NCCC3)cnc2c1NCCO2 [Example 246, 4-((8-methyl-2,3-dihydro-1H-pyrido[2,3-b][1,4]oxazin-7-yl)amino)-2-oxo-N-(1,2,3,4-tetrahydroquinolin-7-yl)-1,2-dihydropyridine-3-carboxamide]	10 to 100
Cc1c(Nc2cc[nH]c(=O)c2C(=O)Nc2ccc(N3CCN(C(=O)C4CC4)CC3)cc2)cnc2c1NCCO2 [Example 332, N-(4-(4-(cyclopropanecarbonyl)piperazin-1-yl)phenyl)-4-((8-methyl-2,3-dihydro-1H-pyrido[2,3-b][1,4]oxazin-7-yl)amino)-2-oxo-1,2-dihydropyridine-3-carboxamide]	≤ 10
Cc1c(Nc2cc[nH]c(=O)c2C(=O)Nc2ccc(N3CCN(C(=O)CCO)CC3)cc2)cnc2c1NCCO2 [Example 403, N-(4-(4-(3-hydroxypropanoyl)piperazin-1-yl)phenyl)-4-((8-methyl-2,3-dihydro-1H-pyrido[2,3-b][1,4]oxazin-7-yl)amino)-2-oxo-1,2-dihydropyridine-3-carboxamide]	≤ 10
Cc1c(Nc2cc[nH]c(=O)c2C(=O)Nc2ccc(N3CCN(C4CCN(C)CC4)CC3)cc2)cnc2c1NCCO2 [Example 292, 4-((8-methyl-2,3-dihydro-1H-pyrido[2,3-b][1,4]oxazin-7-yl)amino)-N-(4-(4-(1-methylpiperidin-4-yl)piperazin-1-yl)phenyl)-2-oxo-1,2-dihydropyridine-3-carboxamide]	≤ 10
COCCN1CCC(c2ccc(NC(=O)c3c(Nc4cnc5c(c4C)NCCO5)cc[nH]c3=O)cc2F)CC1 [Example 276, N-(3-fluoro-4-(1-(2-methoxyethyl)piperidin-4-yl)phenyl)-4-((8-methyl-2,3-dihydro-1H-pyrido[2,3-b][1,4]oxazin-7-yl)amino)-2-oxo-1,2-dihydropyridine-3-carboxamide]	≤ 10
Cc1c(Nc2cc[nH]c(=O)c2C(=O)Nc2ccc3c(c2)CCC(=O)N3)cnc2c1NCCO2 [Example 252, 4-((8-methyl-2,3-dihydro-1H-pyrido[2,3-b][1,4]oxazin-7-yl)amino)-2-oxo-N-(2-oxo-1,2,3,4-tetrahydroquinolin-6-yl)-1,2-dihydropyridine-3-carboxamide]	10 to 100

Other lines, results leading:

IC50 [nM]	Structure (SMILES)
≤ 10	Cc1c(Nc2cc[nH]c(=O)c2C(=O)Nc2ccc(N3CCN(C(=O)C4CC(C)C4)CC3)cc2)cnc2c1NCCO2 (stereo not shown) [Example 307, 4-((8-methyl-2,3-dihydro-1H-pyrido[2,3-b][1,4]oxazin-7-yl)amino)-N-(4-(4-(3-methylcyclobutane-1-carbonyl)piperazin-1-yl)phenyl)-2-oxo-1,2-dihydropyridine-3-carboxamide]
≤ 10	Cc1c(Nc2cc[nH]c(=O)c2C(=O)Nc2ccc(N3CCN(c4nccn4C)CC3)cc2)cnc2c1NCCO2 [Example 366, N-(4-(4-(1-methyl-1H-imidazol-2-yl)piperazin-1-yl)phenyl)-4-((8-methyl-2,3-dihydro-1H-pyrido[2,3-b][1,4]oxazin-7-yl)amino)-2-oxo-1,2-dihydropyridine-3-carboxamide]
≤ 10	CCCN1CCN(c2ccc(NC(=O)c3c(Nc4cnc5c(c4C)NCCO5)cc[nH]c3=O)cc2)CC1 [Example 399, 4-((8-methyl-2,3-dihydro-1H-pyrido[2,3-b][1,4]oxazin-7-yl)amino)-2-oxo-N-(4-(4-propylpiperazin-1-yl)phenyl)-1,2-dihydropyridine-3-carboxamide]
≤ 10	Cc1ncccc1N1CCN(c2ccc(NC(=O)c3c(Nc4cnc5c(c4C)NCCO5)cc[nH]c3=O)cc2)CC1 [Example 337, 4-((8-methyl-2,3-dihydro-1H-pyrido[2,3-b][1,4]oxazin-7-yl)amino)-N-(4-(4-(2-methylpyridin-3-yl)piperazin-1-yl)phenyl)-2-oxo-1,2-dihydropyridine-3-carboxamide]
≤ 10	Cc1c(Nc2cc[nH]c(=O)c2C(=O)Nc2ccc(N3CCN(C(=O)N4CC(C)(C)C4)CC3)cc2)cnc2c1NCCO2 [Example 317, N-(4-(4-(3,3-dimethylazetidine-1-carbonyl)piperazin-1-yl)phenyl)-4-((8-methyl-2,3-dihydro-1H-pyrido[2,3-b][1,4]oxazin-7-yl)amino)-2-oxo-1,2-dihydropyridine-3-carboxamide]
≤ 10	Cc1c(Nc2cc[nH]c(=O)c2C(=O)Nc2ccc(N3CCN(Cc4ccnn4C)CC3)cc2)cnc2c1NCCO2 [Example 308, N-(4-(4-((1-methyl-1H-pyrazol-5-yl)methyl)piperazin-1-yl)phenyl)-4-((8-methyl-2,3-dihydro-1H-pyrido[2,3-b][1,4]oxazin-7-yl)amino)-2-oxo-1,2-dihydropyridine-3-carboxamide]

Source: patent US20250282794A1 (CURADEV PHARMA LTD, priority 2022, published 2025)
